These results are taken from US20240360157A1, “TYK2 INHIBITORS” (BIOGEN MA INC., priority 2021, published 2024).

Holding throughout (type): biochemical
For assay [1], the target named is human TYK2 catalytic kinase (JH1) domain (Homo sapiens (Human), UniProt P29597). Briefly: ADP-Glo Kinase Assay, recombinant TYK2 catalytic kinase (JH1) domain. To be noted: recombinant JH1 domain 2 nM, 10 μM ATP, JAK3-974 peptide, mean, read-out: TYK2 biochem IC50 (nM) Mean. In short, it runs like this:
(§1)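 Luminescent ADP read-out after residual ATP depletion, 100 min reaction. Kinase domain concentrations were 4 nM (JAK1), 0.2 nM (JAK2), 0.3 nM (JAK3) and 2 nM (TYK2), each with 50 μM peptide. IC50 values came from 4-parameter logistic fits over 11 points, 3-fold steps, top 10 μM or 1 μM.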

Assay [2] deals with human JAK3 catalytic kinase (JH1) domain (Homo sapiens (Human), UniProt P52333). Description: ADP-Glo Kinase Assay, recombinant JAK3 catalytic kinase (JH1) domain. To be noted: recombinant JH1 domain 0.3 nM, 4 μM ATP, JAK3-974 peptide, mean, read-out: JAK3 biochem IC50 (nM) Mean. In short, it runs like this: as §1
Sequence of human JAK3 catalytic kinase (JH1) domain (P52333 822-1111): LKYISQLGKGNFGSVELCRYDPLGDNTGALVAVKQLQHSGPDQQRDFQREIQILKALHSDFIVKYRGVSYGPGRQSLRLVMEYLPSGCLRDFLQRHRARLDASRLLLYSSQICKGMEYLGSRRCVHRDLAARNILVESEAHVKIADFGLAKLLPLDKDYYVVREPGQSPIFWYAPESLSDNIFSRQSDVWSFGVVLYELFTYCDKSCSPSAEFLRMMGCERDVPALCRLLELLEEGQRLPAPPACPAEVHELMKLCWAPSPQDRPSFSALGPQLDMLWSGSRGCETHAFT
A general note: ADP-Glo turns the ADP formed in a reaction into a luminescent signal.

For assay [3], the target named is human JAK1 catalytic kinase (JH1) domain (Homo sapiens (Human), UniProt P23458). Description: ADP-Glo Kinase Assay, recombinant JAK1 catalytic kinase (JH1) domain. The note with it: recombinant JH1 domain 4 nM, 35 μM ATP, JAK3-342 peptide, mean, read-out: JAK1 biochem IC50 (nM) Mean. In short, it runs like this: as §1
Sequence of human JAK1 catalytic kinase (JH1) domain (P23458 875-1153): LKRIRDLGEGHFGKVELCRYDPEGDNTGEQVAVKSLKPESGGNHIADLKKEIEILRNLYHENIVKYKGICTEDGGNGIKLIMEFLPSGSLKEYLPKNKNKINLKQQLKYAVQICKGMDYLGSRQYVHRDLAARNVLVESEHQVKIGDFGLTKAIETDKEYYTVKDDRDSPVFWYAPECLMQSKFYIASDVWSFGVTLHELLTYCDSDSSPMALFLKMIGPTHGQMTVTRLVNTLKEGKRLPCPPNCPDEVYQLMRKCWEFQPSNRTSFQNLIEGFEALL
For assay [4], the target named is human JAK2 catalytic kinase (JH1) domain (Homo sapiens (Human), UniProt O60674). Description: ADP-Glo Kinase Assay, recombinant JAK2 catalytic kinase (JH1) domain. The note with it: recombinant JH1 domain 0.2 nM, 15 μM ATP, JAK3-974 peptide, mean, read-out: JAK2 biochem IC50 (nM) Mean. The method, boiled down: as §1
Sequence of human JAK2 catalytic kinase (JH1) domain (O60674 849-1124): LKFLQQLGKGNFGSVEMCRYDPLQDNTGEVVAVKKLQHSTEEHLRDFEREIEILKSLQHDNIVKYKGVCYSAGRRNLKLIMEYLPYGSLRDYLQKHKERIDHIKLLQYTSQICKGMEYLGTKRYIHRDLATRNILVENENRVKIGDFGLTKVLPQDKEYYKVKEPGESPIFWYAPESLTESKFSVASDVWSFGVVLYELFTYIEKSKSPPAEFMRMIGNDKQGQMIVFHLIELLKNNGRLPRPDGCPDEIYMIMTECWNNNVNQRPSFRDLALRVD

SMILES strings stand for the structures.

Sequence of human TYK2 catalytic kinase (JH1) domain (P29597 897-1176): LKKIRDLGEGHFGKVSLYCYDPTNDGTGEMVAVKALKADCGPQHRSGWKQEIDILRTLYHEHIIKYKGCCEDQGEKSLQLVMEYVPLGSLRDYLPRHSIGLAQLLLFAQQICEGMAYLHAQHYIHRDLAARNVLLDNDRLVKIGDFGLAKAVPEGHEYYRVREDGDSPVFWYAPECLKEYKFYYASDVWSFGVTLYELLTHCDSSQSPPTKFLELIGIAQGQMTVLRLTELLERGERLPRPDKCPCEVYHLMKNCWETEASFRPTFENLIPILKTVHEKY

Consider `O=C([C@H]1C[C@H](C(F)(F)F)C1)N1C2CCC1CN(c1ncnn3cc(-c4cnn(C(F)F)c4)cc13)C2` [Example 28, (3-(6-(1-(difluoromethyl)-1H-pyrazol-4-yl)pyrrolo[2,1-f][1,2,4]triazin-4-yl)-3,8-diazabicyclo[3.2.1]octan-8-yl)((1r,3r)-3-(trifluoromethyl)cyclobutyl)methanone], for which the IC50 in assay [1] came out at 636 nM; in assay [2] it was 10000 nM; in assay [3] it was 2140 nM; in assay [4], 10000 nM.
In the case of `Cn1cc(-c2cc3c(N4CC5CCC(C4)N5C(=O)C4(C)CCC4)ncnn3c2)cn1` [Example 68, (3-(6-(1-methyl-1H-pyrazol-4-yl)pyrrolo[2,1-f][1,2,4]triazin-4-yl)-3,8-diazabicyclo[3.2.1]octan-8-yl)(1-methylcyclobutyl)methanone], the IC50 worked out at 696 nM in assay [1], 8670 nM in assay [2], 8700 nM in assay [3] and 9180 nM in assay [4].
In the same order, the values of `O=C([C@@H]1C[C@H]1F)N1C2CCC1CN(c1ncnc3[nH]c(-c4ccc(C(F)(F)F)nc4)cc13)C2` [Example 228, ((1S,2R)-2-fluorocyclopropyl)(3-(6-(6-(trifluoromethyl)pyridin-3-yl)-7H-pyrrolo[2,3-d]pyrimidin-4-yl)-3,8-diazabicyclo[3.2.1]octan-8-yl)methanone] are 41.2 nM, 7440 nM, 315 nM and 813 nM.
As for `COc1ncnc(-c2cc3c(N4CC5CCC(C4)N5C(=O)[C@@H]4C[C@H]4F)ccnn3c2)c1F` [Example 107, (3-(6-(5-fluoro-6-methoxypyrimidin-4-yl)pyrrolo[1,2-b]pyridazin-4-yl)-3,8-diazabicyclo[3.2.1]octan-8-yl)((1S,2R)-2-fluorocyclopropyl)methanone], the half-maximal inhibitory concentration (IC50) in assay [1] amounted to 92.3 nM; in assay [2], 10000 nM; in assay [3] it was 862 nM; in assay [4], 1680 nM.
The like results for `O=C([C@@H]1C[C@H]1F)N1C2CCC1CN(c1ccnc3[nH]c(N4CCOCC4)nc13)C2` [Example 212, ((1S,2R)-2-fluorocyclopropyl)(3-(2-morpholino-3H-imidazo[4,5-b]pyridin-7-yl)-3,8-diazabicyclo[3.2.1]octan-8-yl)methanone] were, in that order, 30.5 nM, 4220 nM, 322 nM and 650 nM.
In the same order, the values of `COc1ccc(-c2cc3c(N4CC5CCC(C4)N5C(=O)[C@@H]4C[C@H]4F)ccnn3c2)nn1` [Example 122, ((1S,2R)-2-fluorocyclopropyl)(3-(6-(6-methoxypyridazin-3-yl)pyrrolo[1,2-b]pyridazin-4-yl)-3,8-diazabicyclo[3.2.1]octan-8-yl)methanone] are 3.7 nM, 940 nM, 308 nM and 63 nM.
Consider `Cn1cnc(-c2cc3c(N4CC5CCC(C4)N5C(=O)C4CC4)ncnn3c2)c1` [Example 143, Cyclopropyl(3-(6-(1-methyl-1H-imidazol-4-yl)pyrrolo[2,1-f][1,2,4]triazin-4-yl)-3,8-diazabicyclo[3.2.1]octan-8-yl)methanone], for which the concentration for half-maximal inhibition (IC50) in assay [1] was 533 nM; in assay [2] it was 9690 nM; in assay [3], 10000 nM; in assay [4], 9940 nM.
Take `CCn1cc(-c2cc3c(N4CC5CCC(C4)N5C(=O)C4CC4)ncnn3c2)cn1` [Example 147]: the IC50 in assay [1] was determined as 147 nM; in assay [2], 2090 nM; in assay [3], 974 nM; in assay [4], 2960 nM.
In the same order, the values of `O=C([C@@H]1C[C@H]1F)N1C2CCC1CN(c1ccnn3cc(-c4cnn(C(F)F)c4)cc13)C2` [Example 17, (3-(6-(1-(difluoromethyl)-1H-pyrazol-4-yl)pyrrolo[1,2-b]pyridazin-4-yl)-3,8-diazabicyclo[3.2.1]octan-8-yl)((1S,2R)-2-fluorocyclopropyl)methanone] are 1 nM, 437 nM, 37 nM and 36 nM.
As to `Cn1cc(-c2cc3c(N4CC5CCC(C4)N5C(=O)C4CC4)ccnc3[nH]2)cn1` [Example 236, cyclopropyl(3-(2-(1-methyl-1H-pyrazol-4-yl)-1H-pyrrolo[2,3-b]pyridin-4-yl)-3,8-diazabicyclo[3.2.1]octan-8-yl)methanone], the half-inhibitory concentration (IC50) in assay [1] stood at 3.8 nM; in assay [2], 253 nM; in assay [3], 145 nM; in assay [4], 99 nM.
Take `O=C([C@@H]1C[C@H]1F)N1C2CCC1CN(c1ccnn3cc(C4CCOC4)cc13)C2` (stereo partly drawn) [Example 175, ((1S,2R)-2-fluorocyclopropyl)(3-(6-(tetrahydrofuran-3-yl)pyrrolo[1,2-b]pyridazin-4-yl)-3,8-diazabicyclo[3.2.1]octan-8-yl)methanone]: the half-inhibitory concentration (IC50) in assay [1] is 847 nM; in assay [2] it was no less than 10000 nM; in assay [3] it was no less than 10000 nM; in assay [4] it was no less than 10000 nM.
`N#Cc1cc(-c2cc3c(N4CC5CCC(C4)N5C(=O)[C@@H]4C[C@H]4F)ncnc3[nH]2)ccn1` [Example 233, 4-(4-(8-((1S,2R)-2-fluorocyclopropane-1-carbonyl)-3,8-diazabicyclo[3.2.1]octan-3-yl)-7H-pyrrolo[2,3-d]pyrimidin-6-yl)picolinonitrile]: the concentration for half-maximal inhibition (IC50) in assay [1] is 15.4 nM; in assay [2], 3240 nM; in assay [3], 174 nM; in assay [4], 248 nM.
In the case of `COc1cc(-c2cc3c(N4CC5CCC(C4)N5S(=O)(=O)C4CC4)ccnn3c2)ccn1` [Example 190], the half-maximal inhibitory concentration (IC50) worked out at 64.4 nM in assay [1], 2750 nM in assay [2], 324 nM in assay [3] and 280 nM in assay [4].
Take `O=C([C@@H]1C[C@H]1F)N1C2CCC1CN(c1ccnn3cc(-c4ccc(=O)n(C(F)F)c4)cc13)C2` [Example 132, 1-(difluoromethyl)-5-(4-(8-((1S,2R)-2-fluorocyclopropane-1-carbonyl)-3,8-diazabicyclo[3.2.1]octan-3-yl)pyrrolo[1,2-b]pyridazin-6-yl)pyridin-2(1H)-one]: the half-inhibitory concentration (IC50) in assay [1] is 3.3 nM; in assay [2] it was 452 nM; in assay [3], 34 nM; in assay [4], 37 nM.
Consider `O=C(CC(F)(F)F)N1C2CCC1CN(c1ncnn3cc(-c4cnn(C(F)F)c4)cc13)C2` [Example 43, 1-(3-(6-(1-(difluoromethyl)-1H-pyrazol-4-yl)pyrrolo[2,1-f][1,2,4]triazin-4-yl)-3,8-diazabicyclo[3.2.1]octan-8-yl)-3,3,3-trifluoropropan-1-one], for which the IC50 amounted to 223 nM in assay [1], 4640 nM in assay [2], 892 nM in assay [3] and 5200 nM in assay [4].
In the same order, the values of `O=C([C@@H]1C[C@H]1F)N1C2CCC1CN(c1ccnn3cc(-c4ccnc(N5CCC5)c4)cc13)C2` [Example 119, (3-(6-(2-(azetidin-1-yl)pyridin-4-yl)pyrrolo[1,2-b]pyridazin-4-yl)-3,8-diazabicyclo[3.2.1]octan-8-yl)((1S,2R)-2-fluorocyclopropyl)methanone] are 45 nM, 5520 nM, 1720 nM and 215 nM.
As for `Cn1ncc(-c2cc3c(N4CC5CCC(C4)N5C(=O)[C@@H]4C[C@H]4F)ncnn3c2)c1F` [Example 97, (3-(6-(5-fluoro-1-methyl-1H-pyrazol-4-yl)pyrrolo[2,1-f][1,2,4]triazin-4-yl)-3,8-diazabicyclo[3.2.1]octan-8-yl)((1S,2R)-2-fluorocyclopropyl)methanone], the IC50 in assay [1] is 76.8 nM; in assay [2] it was 4040 nM; in assay [3], 1320 nM; in assay [4] it was 1380 nM.
The like results for `O=C(C1CC1)N1C2CCC1CN(c1ncnn3cc(-c4cnn(CC5COC5)c4)cc13)C2` [Example 160] were, in that order, 107 nM, 780 nM, 555 nM and 931 nM.
On to `Cn1ccc(-c2cc3c(N4CC5CCC(C4)N5C(=O)[C@@H]4C[C@H]4F)ccnn3c2)cc1=O` [Example 171], for which the half-inhibitory concentration (IC50) in assay [1] turned out to be 1.5 nM; in assay [2], 322 nM; in assay [3] it was 136 nM; in assay [4], 28 nM.
As to `COc1ccc(-c2cc3c(N4CC5CCC(C4)N5C(=O)C4CC4)ncnn3c2)cn1` [Example 178], the IC50 was 719 nM in assay [1], 6270 nM in assay [2], 2020 nM in assay [3] and 10000 nM in assay [4].
In the case of `COc1cc(-c2cc3c(N4CC5CCC(C4)N5S(=O)(=O)C4CC4)ccnc3[nH]2)ccn1` [Example 194], the IC50 in assay [1] turned out to be 21 nM; in assay [2], 612 nM; in assay [3] it was 116 nM; in assay [4], 80 nM.
`COc1cc(-n2cc3nccc(N4CC5CCC(C4)N5C(=O)[C@@H]4C[C@H]4F)c3n2)ccn1` [Example 37, ((1S,2R)-2-fluorocyclopropyl)(3-(2-(2-methoxypyridin-4-yl)-2H-pyrazolo[4,3-b]pyridin-7-yl)-3,8-diazabicyclo[3.2.1]octan-8-yl)methanone]: the half-inhibitory concentration (IC50) was found to be 11 nM in assay [1], 868 nM in assay [2], 72 nM in assay [3] and 88 nM in assay [4].

Broadly, the IC50 is the concentration at which inhibition is half-maximal.
